Drawing on patent publication US6133297A, “Thrombin inhibitors” (Merck & Co., Inc., priority 1998, dated 2000), this text covers Ki and Km for 23 compounds.

Structures are written as SMILES. Non-standard residues stand in square brackets, D forms with d. Residues, ends and D or L forms follow the SMILES beside them. *: point of attachment. AFC = O=c1cc(C(F)(F)F)c2ccc(N*)cc2o1; pNA = O=[N+]([O-])c1ccc(N*)cc1; Cbz = O=C(OCc1ccccc1)*; Sar = CNCC(=O)O

The first experiment deals with T1, human a-thrombin (Homo sapiens, UniProt P00734).
T1 construct: human a-thrombin
The experiment is described as follows: In vitro assay for determining proteinase inhibition (thrombin Ki). In kind it is biochemical. The settings on record: 25° C., 0.05 M TRIS buffer pH 7.4, 0.15 M NaCl, 0.1% PEG. The procedure: In vitro Assay for Determining Proteinase Inhibition
(§1) Assays of human a-thrombin and human trypsin were performed at 25° C. in 0.05 M TRIS buffer pH 7.4, 0.15 M NaCl, 0.1% PEG. Trypsin assays also contained 1 mM CaCl2.
(§2) In certain studies with potent inhibitors (Ki <10 nM) where the degree of inhibition of thrombin was high, a more sensitive activity assay was employed. […] Concentrations of stock solutions of Z-GPR-afc were determined from measurements of absorbance at 380 nm of the 7-amino-4-trifluoromethylcoumarin produced upon complete hydrolysis of an aliquot of the stock solution by thrombin.
Activity assays were performed by diluting a stock solution of substrate at least tenfold to a final concentration <0.5 Km into a solution containing enzyme or enzyme equilibrated with inhibitor. Times required to achieve equilibration between enzyme and inhibitor were determined in control experiments. Initial velocities of product formation in the absence (V0) or presence of inhibitor (Vi) were measured. Assuming competitive inhibition, and that unity is negligible compared Km /[S], […] (where [S], [I], and e respectively represent the total concentrations, of substrate, inhibitor and enzyme), the equilibrium constant (Ki) for dissociation of the inhibitor from the enzyme can be obtained from the dependence of V0 /Vi on [I] shown in equation 1.
As usually defined, the Ki is a measure of affinity in units of concentration, obtained from inhibition or displacement. For `O=C(CNS(=O)(=O)c1ccc(Cl)cc1)N[C@H](CCNc1ccncc1)Cc1ccccc1` [Bn 1 4-Cl--PhSO2 -- H], the inhibitory constant (Ki) is under 1 µM.

`C[C@H](NS(=O)(=O)Cc1ccccc1)C(=O)N[C@H](CCNc1ccncc1)Cc1ccccc1` [Bn 1 BnSO2 -- (S)-CH3] gave a Ki of under 1 µM. The same measure, in the same setting: to `O=C(CNS(=O)(=O)c1ccccc1)N[C@H](CNc1ccncc1)CC1CCCCC1` [c-hexylCH2 -- 0 PhSO2 -- H] belongs over 1 µM; to `O=C(CNS(=O)(=O)c1ccc(Cl)c(Cl)c1)N[C@H](CCNc1ccncc1)Cc1ccccc1` [Bn 1 3,4-di-Cl--PhSO2 -- H], under 1 µM; to `NC(Cc1ccc(Cl)cc1)C(=O)N[C@H](CCNc1ccncc1)Cc1ccccc1` (some centres unmarked) [Bn 1 H 4-ClBn--], under 1 µM. On the same count and under the same terms, to `CC(C)[C@@H](CCNc1ccncc1)NC(=O)CNS(=O)(=O)Cc1ccccc1` [(CH3)2 CH2 -- 1 BnSO2 -- H] belongs over 1 µM. Consider `O=C(CNS(=O)(=O)Cc1ccc(Cl)cc1)N[C@H](CCNc1ccncc1)Cc1ccccc1` [Bn 1 4-Cl--BnSO2 -- H], for which the inhibition constant Ki was under 1 µM.

With `O=C(N[C@H](CCNc1ccncc1)Cc1ccccc1)[C@H](CO)NS(=O)(=O)c1ccc(Cl)c(Cl)c1` [Bn 1 3,4-di-Cl--PhSO2 -- (S)-CH2 OH], the Ki is under 1 µM. In turn, `O=C(CNS(=O)(=O)Cc1ccc(C(F)(F)F)cc1)N[C@H](CCNc1ccncc1)Cc1ccccc1` [Bn 1 4-CF3 --BnSO2 -- H] returned an inhibition constant (Ki) of under 1 µM.

`O=C(CNS(=O)(=O)Cc1ccc(Cl)c(Cl)c1)N[C@H](CCNc1ccncc1)Cc1ccccc1` [Bn 1 3,4-di-Cl--BnSO2 -- H]: the Ki is under 1 µM. Same read-out and setting: to `CC(C)[C@@H](CCNc1ccncc1)NC(=O)CNS(=O)(=O)c1ccc(Cl)c(Cl)c1` [(CH3)2 CH2 -- 1 3,4-di-Cl--PhSO2 -- H] belongs under 1 µM; to `O=C(CNS(=O)(=O)c1ccc(Cl)cc1)N[C@H](CNc1ccncc1)Cc1ccccc1` [Bn 0 4-ClPhSO2 -- H], over 1 µM. Same read-out and setting: in the case of `O=C(CNS(=O)(=O)c1ccc2ccccc2c1)N[C@H](CCNc1ccncc1)Cc1ccccc1` [Bn 1 2-naphthSO2 -- H] it was under 1 µM; in that of `O=C(CNS(=O)(=O)Cc1ccccc1)N[C@H](CCNc1ccncc1)Cc1ccccc1` [Bn 1 BnSO2 -- H], under 1 µM. The same measure, in the same setting: to `CS(=O)(=O)CC[C@H](NS(=O)(=O)Cc1ccccc1)C(=O)N[C@H](CCNc1ccncc1)Cc1ccccc1` [Bn 1 BnSO2 -- (S)- CH2 CH2 SO2 CH3] belongs under 1 µM; to `O=C(CNS(=O)(=O)C=Cc1ccccc1)N[C@H](CCNc1ccncc1)Cc1ccccc1` [Bn 1 PhCH=CHSO2 -- H], under 1 µM.

`C[C@@H](NS(=O)(=O)Cc1ccccc1)C(=O)N[C@H](CCNc1ccncc1)Cc1ccccc1` [Bn 1 BnSO2 -- (R)-CH3]: the Ki is over 1 µM. On the same count and under the same terms, in the case of `COc1cc(C)c(S(=O)(=O)NCC(=O)N[C@H](CCNc2ccncc2)Cc2ccccc2)c(C)c1C` [Bn 1 4-OCH3-2,3,6-MePhSO2 -- H] it was under 1 µM. On the same count and under the same terms, to `CC(C)(C)OC(=O)NCC(=O)N[C@H](CNc1ccncc1)Cc1ccccc1` [Bn 0 Boc H] belongs over 1 µM. On the same count and under the same terms, to `O=C(CNS(=O)(=O)c1ccccc1)N[C@H](CNc1ccncc1)Cc1ccccc1` [Bn 0 PhSO2 -- H] belongs over 1 µM; to `CSCC[C@H](NS(=O)(=O)Cc1ccccc1)C(=O)N[C@H](CCNc1ccncc1)Cc1ccccc1` [Bn 1 BnSO2 -- (S)-CH2 CH2 SCH3], under 1 µM.

The next experiment relates to human trypsin. The experiment is described as follows: Hydrolysis of p-nitroanilide substrate by human trypsin (405 nm). The format is biochemical. The conditions noted are these: substrate for human trypsin, 25° C., pH 7.4, 1 mM CaCl2. The procedure: as §1
Broadly, the Km is the substrate concentration at which the rate is half of its maximum. Take `CNCC(=O)N1CCC[C@H]1C(=O)N[C@@H](CCCNC(=N)N)C(=O)Nc1ccc([N+](=O)[O-])cc1` [sar-PR-pna, sarcosine-Pro-Arg-p-nitroanilide] (H-[Sar]-Pro-Arg-pNA): the Km came out at 59 µM.

A further experiment has as its system thrombin. The experiment is described as follows: Thrombin catalyzed hydrolysis of fluorogenic substrate (fluorescence at 500 nm). The format is biochemical, human. The conditions noted are these: fluorogenic substrate for thrombin, excitation at 400 nm. Here is the method: as §1, §2
As to `N=C(N)NCCC[C@H](NC(=O)[C@@H]1CCCN1C(=O)CNC(=O)OCc1ccccc1)C(=O)Nc1ccc2c(C(F)(F)F)cc(=O)oc2c1` [Z-GPR-afc, Cbz-Gly-Pro-Arg-7-amino-4-trifluoromethylcoumarin] (Cbz-Gly-Pro-Arg-{AFC}), the Km is 27 µM.
